Entries after “also recorded” stand apart in the source; their conditions may differ.
Legend:
[1] = Stiffness measurement of collagen I with fibronectin (compression test); format: physicochemical; conditions: fibronectin with collagen I vs collagen I only
Procedure: FIG. 3. Impact of fibronectin on macrotumors. Small tumors (9000) preformed in Matrigel™ for 10 days were used to make macrotumors as described in the Methods section with or without incubation with 100 μg/ml fibronectin. a. Macrotumors prepared without fibronectin incubation and cultured for 24 hours (right images at 40× magnification). b. Comparison of volumes and areas of macrotumors with (+) or without (−) incubation with fibronectin after 30 minutes (0.5 h) and 24 h of culture; n=5, mean+/−SEM. c. Stiffness of collagen I (Young's modulus, Pa) prepared with Collagen I, and measured with customized eXpert 4000, ADMET by constant pressure on unconstrained sample (see reference 15 for details for this procedure). d. Staining with H&E of macrotumors prepared without incubation with fibronectin. e. representative images of macrotumors and nodules (mixed in collagen I for 10 minutes without prior centrifugation). Shown is the bar graph of the percentage of cells positive for proliferation marker Ki67 staining after 24 h of culture of macrotumors in collagen I or collagen I+fibronectin (F), or nodules (mixed in collagen I for 10 minutes without prior centrifugation); n=2; 150 nuclei analyzed per biological replicate. […]
The elastic modulus of cultured samples can be calculated from engineered stress-strains curve attained with compression tests. […]

[2] = test system: macrotumors formed by T4-2 cells; experiment: Doxorubicin uptake in macrotumors (autofluorescence, confocal Z-sections); format: cell-based; conditions: 4-h treatment, 10 μg/ml [17.25 μM], macrotumors cultured 24 h
Procedure: FIG. 1. Differential centrifugation of small tumor nodules leads to the formation of simple and mixed types of macrotumors with in vivo like pathological features. The formation of tumors of up to 600 μm in size was induced by culturing either IDC T4-2 cells or S2 DCIS cells in Matrigel™ drip culture for 10 days. Upon release from Matrigel™ with dispase treatment, tumor nodules were incubated with 100 μg/ml fibronectin solution, spun down either as a single type of nodules (9,000 nodules; a-e) or as mixed types of nodules (4,500 nodules of each tumor type; f-g) and embedded in collagen I (2,000 Pa) as detailed in the methods section. a. […] Macrotumors cultured for 24 h were incubated with 17.25 μM doxorubicin for four hours and imaged with bright field and fluorescence microscopy (doxorubicin autofluorescence in the red channel). […] Fluorescence images of macrotumors formed by DiI-stained T4-2 nodules, CellMask™ Green-stained S2 nodules and mixed types of macrotumors with T4-2 and S2 nodules (either mixed before centrifugation ‘T4-2/S2 by mixing’ or sequentially centrifuged ‘T4-2/S2 by stacking’) taken with a Nikon®ECLIPSE® Ts2 inverted microscope (Nikon, Melville, NY). g. […] In D, 50 nuclei analyzed in two biological replicates for macrotumors and 100 nuclei analyzed per section of three tissue samples; *P<0.05 **P<0.01; ANOVA with Tukey's posthoc test. […]

[3] = test system: macrotumors formed by T4-2 cells; experiment: Doxorubicin treatment of macrotumors, tumor size (surface area); format: cell-based; conditions: 10 μM; 24 h, followed by six-day resting period
Procedure: (§1) FIG. 6. Effect of Doxorubicin treatment on macrotumors formed by T4-2 cells. a. Images of macrotumors treated (Dox) or untreated (Control) with 10 μM doxorubicin at day 0, for 24 hours and further cultured for six days. n=two replicates for this experiment (1, 2). b. Shown are the surface areas of macrotumors from A measured at days 0, 1, 2, 4, 5, and 7. c. Another experiment with 24 h Doxorubicin (Dox) treatment at day 0, 7 and 14 with images taken at day 0 and 21. Size bars, 5 mm
Images of whole tumors in culture and of paper scaffold were taken with a Plugable USB 2.0 Digital Microscope (Plugable Technologies, Redmond, WA). Tumor size (short and long axis) was measured with ImageJ. For pathological assessment slides were either directly visualized by microscopy or scanned (20× objective) with an Aperio/Pathology Slide Scanner (Leica Biosystems Inc., Buffalo Grove, IL).

[4] = test system: macrotumors formed by T4-2 cells; experiment: Weekly doxorubicin treatment of macrotumors, pathological assessment of nuclear morphology; format: cell-based; conditions: 10 μM; 24 h weekly for three weeks; assessed at days 7 and 21
Procedure: as §1
Macrotumors were fixed in 4% paraformaldehyde (Santa Cruz; Dallas, TX) prior to embedding in paraffin at the Histology Research Laboratory, Department of Comparative Pathobiology, Purdue University, according to standard protocols used for tumor sample embedding, sectioning, immunohistochemistry with polyclonal antibodies against caspase 3 (1/200; Cell Signaling Tech, Danvers, MA) and Ki67 (1/500; Millipore-Sigma, St Louis, MO) and hematoxylin & eosin (H&E) staining. Certain sections were stained with toluidine blue (SigmaAldrich, St. Louis, MO) before H&E staining.

Row | Molecule | ECM stiffness [1] | drug uptake / penetration in the macrotumor [2] | tumor size [3] | nuclear morphology (pathological assessment) [4]
1 | Fibronectin | slightly raised | – | – | –
2 | COc1cccc2c1C(=O)c1c(O)c3c(c(O)c1C2=O)C[C@@](O)(C(=O)CO)C[C@@H]3O[C@H]1C[C@H](N)[C@H](O)[C@H](C)O1 [doxorubicin] | – | penetration of doxorubicin in all areas of the macrotumor; also recorded: drug uptake occurred throughout the macrotumors | appeared to decrease tumor size after day 4 | increasingly affected
